Source: US10912843B2, “Endoplasmic reticulum-targeting nanovehicles and methods for use thereof” (National Cheng Kung University, priority 2018, dated 2021)

How the values were obtained:
[1] = system: differentiated HL-60 cells; assay: Curcumin-induced extracellular calcium influx; assay type: cell-based
Method: Extracellular calcium influx, which is triggered by the depletion of ER calcium stores, was measured in cells treated with free curcumin or treated with curcumin-loaded nanoparticles as follows. Differentiated HL-60 cells were pretreated with free curcumin (10 μM), curcumin-loaded PLGA nanoparticles (0.5 μM), and curcumin-loaded ER-targeted PLGA nanoparticles (0.5 μM) at 37° C. overnight. Cells were washed with calcium-free HBSS, seeded on poly-lysine coated 8-well slides (ibidi, Planegg, Germany) at a density of 1×10^6 cells/ml, and incubated at 37° C. for 30 min. Cells were labeled with 2 μM of the calcium-sensitive fluorescent dye Fluo-4 AM and 1 μM of ER-tracker at 37° C. for 30 min. Labeled cells were treated with 1.25 mM CaCl2. Fluorescence images were captured by confocal microscopy every 10 s for 5 min. following the addition of CaCl2. Fluorescence intensities in these images were analyzed using ImageJ software. The change in fluorescence intensity over time divided by the baseline fluorescence intensity prior to calcium addition (ΔF/FO) was plotted versus time, and the rate of calcium level increase (ΔF/F/s) was derived from that plot. The overall calcium flux was calculated as the area under the curve (AUC) of a ΔF/F/s versus time curve.

[2] = system: human peripheral blood hematopoietic cells (HSCs); assay: Erythroblast differentiation (CD71 / CD235a flow cytometry); assay type: cell-based; conditions: FIG. 6A
Method: Erythroblast differentiation was measured in human peripheral blood hematopoietic cells (HSCs) treated with free curcumin or treated with curcumin-loaded nanoparticles as follows. Human CD34^+ HSCs were cultured in Iscove's modified Dulbecco medium containing 15% heat-inactivated fetal calf serum, 2 U/ml of recombinant human erythropoietin, 20 ng/ml of stem cell factor, and 10 ng/ml of interleukin-3 (IL-3). On day 4, the medium was replaced with fresh medium without IL-3 and the HSCs were cultured for another 5 days. The maturation of erythroblasts was analyzed by detecting the surface expression of CD71 and CD235a with flow cytometry.

[3] = system: differentiated HL-60 cells; assay: Detection of apoptotic cells (Annexin V / 7-AAD); assay type: cell-based; conditions: 10 μM, 24 hours; FIG. 5B
Method: (§1) Differentiated HL-60 cells were treated with 0.5 μM or 10 μM free curcumin, curcumin-loaded PLGA nanoparticles, or curcumin-loaded ER-targeted PLGA nanoparticles for 24 hours. Treated cells were labeled with 250 nM of the mitochondrial membrane potential indicator dye tetramethylrhodamine (TMRM) at 37° C. for 30 min. TMRM-labeled cells were analyzed by flow cytometry and their mitochondrial membrane potentials quantified using the Flowing Software 2 software package.
Cells treated as above with free or encapsulated curcumin were washed with ice-cold phosphate-buffered saline and stained with phycoerythrin-Annexin V and 7 amino-actinomycin D (7-AAD) at room temperature for 15 min. Annexin V binds to the surface of cells undergoing apoptosis, and 7-AAD only enters and stains apoptotic cells. Stained cells were subjected to flow cytometry analysis and the results analyzed using the Flowing Software 2 analysis package.

[4] = system: differentiated HL-60 cells; assay: Curcumin-induced intracellular calcium release (Fluo-4AM); assay type: cell-based; conditions: 10 μM
Method: SERCA inhibitors such as curcumin cause an increase in intracellular calcium release from the ER. The ability of curcumin to induce calcium release was compared to that of PLGA nanoparticle-encapsulated curcumin. Differentiated HL-60 cells were seeded on 8-well slides in calcium-free medium and loaded with the intracellular calcium-sensitive indicator dye Fluo-4AM. Cells were treated with thapsigargin (positive control) or treated with 0.5, 1, or 10 μM curcumin, curcumin-loaded PLGA nanoparticles, or curcumin-loaded ER-targeted PLGA nanoparticles. Fluorescence intensity over time was measured in treated cells by confocal microscopy and analyzed using ImageJ software. The change in fluorescence intensity over time divided by the baseline fluorescence intensity prior to calcium addition (ΔF/FO) was plotted versus time.

[5] = system: differentiated HL-60 cells; assay: ER stress response and caspase-3 cleavage (Western blot); assay type: cell-based; conditions: 10 μM
Method: To determine whether the activation of the ER stress response is involved in curcumin-induced apoptosis, the levels of ER stress markers Bip and phosphorylated ERK, as well as the level of cleaved Caspase-3, a marker of apoptosis, were quantified by Western blot analysis of cells treated with 10 μM curcumin or encapsulated curcumin.
Briefly, treated cells were lysed in 100 μl of lysis buffer (1% Triton-X100, 150 mM NaCl, 10 mM Tris base, 1 mM EDTA, 1 mM EGTA, 50×protease inhibitor cocktail, pH 7.4). Lysed samples were subjected to 10% SDS-PAGE and transferred to membranes for Western Blot analysis using antibodies that bind to Bip, phospho-ERK, total ERK, cleaved caspase-3, and β-actin. Binding of these antibodies was visualized using commercially available enhanced chemiluminescence reagents. Chemiluminescent signals were quantified from images using ImageJ software.

H338Y-gp91^phox protein = assay: Expression and maturation of H338Y-gp91^phox protein in neutrophils of treated transgenic mice (Western blot); assay type: in vivo, mouse; conditions: Cybb^C1024T transgenic Cybb^-/- mice, treated 24 hours, 20 mg/kg of curcumin
Method: The expression of H338Y-gp91^phox protein in neutrophils from the Cybb^C1024T transgenic Cybb^−/− mice was examined by SDS-PAGE and Western blotting with an anti-gp91^phox antibody. To isolate neutrophils, mice were injected intraperitoneally with 3 ml of 3% thioglycollate to elicit peritoneal neutrophils. Four hours later, the mice were sacrificed, and the peritoneal cavity was washed twice with 5 ml of Hanks buffered salt solution (HBSS) with 2 mM ethylene glycol tetraacetic acid to collect the elicited peritoneal neutrophils. Peritoneal neutrophils were then washed with PBS before use.
Curcumin-loaded PLGA nanoparticles with or without the ER-targeting KDEL peptide were tested for their effects on the expression and maturation of H338Y-gp91^phox protein in Cybb^C1024T transgenic Cybb^−/− mice. Briefly, mice were untreated or treated separately with free curcumin, curcumin-loaded PLGA nanoparticles, or curcumin-loaded ER-targeted PLGA nanoparticles for 24 hours in amounts corresponding to 20 mg/kg of curcumin. Neutrophils from the mice were elicited, isolated, and analyzed for expression of H338Y-gp91^phox protein as described above.
Statistical analyses were carried out with Prism software (GraphPad Software). […]

[6] = system: differentiated HL-60 cells; assay: Mitochondrial membrane potential (TMRM, flow cytometry); assay type: cell-based; conditions: 10 μM, 24 hours; FIG. 5A
Method: As mentioned above, it has been shown that curcumin is cytotoxic, as it induces ER stress and apoptosis. The cytotoxicity of free curcumin was compared to that of encapsulated curcumin by measuring in treated cells mitochondrial membrane potential (one measure of cytotoxicity), apoptotic markers, and ER stress-related protein expression.
as §1

## C/C=C(/C)C(=O)O[C@H]1C(C)=C2[C@H]([C@@H]1OC(=O)CCCCCCC)[C@@](C)(OC(C)=O)C[C@H](OC(=O)CCC)[C@@]1(O)[C@H]2OC(=O)[C@@]1(C)O [Thapsigargin, thapsigargin]
[1]; positive control, 1.25 mM extracellular calcium
  time to calcium influx after addition: ≤ 10 s

## COc1cc(/C=C/C(=O)CC(=O)/C=C/c2ccc(O)c(OC)c2)ccc1O [free curcumin, curcumin]
[2]
  percentages of more mature CD71^low CD235^high cells in treated HSCs: significantly enhanced
[3]
  number of apoptotic cells (Annexin V binding): significant increase
[4]
  rate of intracellular calcium increase, compared with lower concentrations of free curcumin: highest
[4]; calcium-free medium, 40, 50 and 60 s after treatment
  level of calcium release, compared with 0.5 μM and 1 μM free curcumin: significantly higher
[1]; 10 μM
  calcium influx rate 20 s after treatment, compared with 0.5 μM curcumin-loaded nanoparticles: significantly higher
[5]; FIG. 5C center panel
  ERK phosphorylation compared with untreated control cells: increased
[5]; FIG. 5C left panel
  Bip expression compared with untreated control cells: increased
H338Y-gp91^phox protein
  expression of glycosylated H338Y-gp91^phox as compared to untreated mice: did not show any change
[6]
  mitochondrial membrane potential compared with control untreated cells: significant reduction
